Consider 32 compounds from patent US12162890B2 (Novartis AG, priority 2015, dated 2024).

The target of the test is HEK293 cells with stable expression of the GRIN1 gene and tetracycline-inducible expression of the GRIN2B gene (NMDA receptor, NR2B) (Homo sapiens, UniProt Q13224). The experiment in a line: Fluo-8 Ca2+ flux assay: reversal of Ro 25-6981-mediated suppression of the Ca2+ response to co-agonist (glutamate/glycine). Also: test concentration or dose not given here. Conditions: reversal of the Ro 25-6981 suppression of the Ca2+ response to co-agonist (glutamate/glycine). In kind it is cell-based. (In general: Calcium flux is commonly read through the fluorescence of an indicator in the cells.)
Chain of HEK293 cells with stable expression of the GRIN1 gene and tetracycline-inducible expression of the GRIN2B gene (NMDA receptor, NR2B) (Q13224 27-1484, other chains not shown): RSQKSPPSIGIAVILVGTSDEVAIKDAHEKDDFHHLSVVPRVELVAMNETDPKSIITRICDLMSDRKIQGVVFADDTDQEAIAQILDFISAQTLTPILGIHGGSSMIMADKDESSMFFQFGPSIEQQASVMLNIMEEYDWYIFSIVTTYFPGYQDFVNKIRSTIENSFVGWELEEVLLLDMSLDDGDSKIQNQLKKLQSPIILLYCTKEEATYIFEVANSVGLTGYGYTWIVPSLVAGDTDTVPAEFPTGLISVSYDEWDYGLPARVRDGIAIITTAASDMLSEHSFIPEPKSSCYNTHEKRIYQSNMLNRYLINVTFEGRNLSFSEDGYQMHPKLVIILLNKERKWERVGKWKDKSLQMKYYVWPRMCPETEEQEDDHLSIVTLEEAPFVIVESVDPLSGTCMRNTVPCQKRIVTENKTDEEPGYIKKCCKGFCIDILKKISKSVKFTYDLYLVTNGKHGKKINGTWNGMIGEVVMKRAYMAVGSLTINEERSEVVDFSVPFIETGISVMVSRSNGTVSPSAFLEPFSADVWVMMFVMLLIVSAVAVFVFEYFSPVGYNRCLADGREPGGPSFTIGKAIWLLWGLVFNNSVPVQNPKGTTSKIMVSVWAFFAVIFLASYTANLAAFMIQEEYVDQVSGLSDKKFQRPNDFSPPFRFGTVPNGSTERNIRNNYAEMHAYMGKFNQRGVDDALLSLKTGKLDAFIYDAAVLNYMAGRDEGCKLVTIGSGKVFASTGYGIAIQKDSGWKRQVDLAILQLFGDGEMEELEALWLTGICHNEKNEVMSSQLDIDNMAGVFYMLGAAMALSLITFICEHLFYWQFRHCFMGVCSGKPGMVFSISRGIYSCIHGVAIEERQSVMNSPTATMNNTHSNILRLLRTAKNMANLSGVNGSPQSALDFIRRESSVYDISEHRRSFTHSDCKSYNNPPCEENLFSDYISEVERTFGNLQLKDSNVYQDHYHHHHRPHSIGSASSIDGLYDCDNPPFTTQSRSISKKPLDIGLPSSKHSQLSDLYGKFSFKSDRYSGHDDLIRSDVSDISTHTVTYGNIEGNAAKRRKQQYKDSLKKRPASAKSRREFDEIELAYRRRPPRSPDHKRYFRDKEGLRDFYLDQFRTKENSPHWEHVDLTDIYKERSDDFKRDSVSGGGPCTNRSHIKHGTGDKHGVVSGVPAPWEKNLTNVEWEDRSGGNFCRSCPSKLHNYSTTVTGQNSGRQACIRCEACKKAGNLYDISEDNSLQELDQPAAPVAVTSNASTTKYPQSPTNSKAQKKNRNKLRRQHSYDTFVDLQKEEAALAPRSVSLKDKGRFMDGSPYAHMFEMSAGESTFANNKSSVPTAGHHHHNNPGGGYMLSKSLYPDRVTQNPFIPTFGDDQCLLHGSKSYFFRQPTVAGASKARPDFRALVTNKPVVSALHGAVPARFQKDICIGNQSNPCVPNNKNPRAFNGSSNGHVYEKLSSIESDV

In the case of `CCC1(F)CN(C(=O)Cn2cc(C)n3ccc(-c4ccc(F)c(Cl)c4)c3c2=O)C1` [Example 418, 8-(3-chloro-4-fluorophenyl)-2-(2-(3-ethyl-3-fluoroazetidin-1-yl)-2-oxoethyl)-4-methylpyrrolo[1,2-a]pyrazin-1(2H)-one], the “Response Recovered (%)” value was found to be 74%.
Turning to `O=C(Cn1ccc2cccc(-c3ccc(F)c(Cl)c3)c2c1=O)N1CCC(F)C1` (centres unmarked) [Example 302, 8-(3-chloro-4-fluorophenyl)-2-(2-(3-fluoropyrrolidin-1-yl)-2-oxoethyl)isoquinolin-1(2H)-one], the “Response Recovered (%)” value came out at 40%.
Consider `O=C(Cn1ccc2c(c(-c3ccc(F)c(C(F)(F)F)c3)cn2C2CC2)c1=O)N1CCC(F)C1` (centres unmarked) [Example 231, 1-cyclopropyl-3-(4-fluoro-3-(trifluoromethyl)phenyl)-5-(2-(3-fluoropyrrolidin-1-yl)-2-oxoethyl)-1H-pyrrolo[3,2-c]pyridin-4(5H)-one], for which the “Response Recovered (%)” value was 90%.
The value for `O=C(Cn1ccc2scc(-c3ccc(F)c(Cl)c3)c2c1=O)N1CC2C(C1)C2(F)F` (centres unmarked) [Example 65, 3-(3-chloro-4-fluorophenyl)-5-(2-(6,6-difluoro-3-azabicyclo[3.1.0]hex-an-3-yl)-2-oxoethyl)thieno[3,2-c]pyridin-4(5H)-one] was 13%.
Take `C[Si](C)(C)CCOCn1cc(-c2ccc(Cl)c(F)c2)c2c(=O)n(CC(=O)N3CCCC3)ccc21` [Example 201, 3-(4-chloro-3-fluorophenyl)-5-(2-oxo-2-(pyrrolidin-1-yl)ethyl)-1-((2-(trimethylsilyl)ethoxy)methyl)-1H-pyrrolo[3,2-c]pyridin-4(5H)-one]: the “Response Recovered (%)” value came out at 62%.
On to `O=C(Cn1cnc2[nH]nc(-c3ccc(Cl)c(F)c3)c2c1=O)N1CCCC1` [Example 319, 3-(4-chloro-3-fluorophenyl)-5-(2-oxo-2-(pyrrolidin-1-yl)ethyl)-1H-pyrazolo[3,4-d]pyrimidin-4(5H)-one], for which the “Response Recovered (%)” value amounted to 4%.
The value for `O=C(Cn1cnc2ccn(-c3ccc(Cl)cc3)c2c1=O)NC1CC1` [Example 375, 2-(5-(4-chlorophenyl)-4-oxo-4,5-dihydro-3H-pyrrolo[3,2-d]pyrimidin-3-yl)-N-cyclopropylacetamide] was 0%.
The value for `CC1(F)CN(C(=O)Cn2ccc3scc(-c4cnc(Cl)c(Cl)c4)c3c2=O)C1` [Example 76, 3-(5,6-dichloropyridin-3-yl)-5-(2-(3-fluoro-3-methylazetidin-1-yl)-2-oxoethyl)thieno[3,2-c]pyridin-4(5H)-one] was 77%.
The figure for `CC1CN(C(=O)Cn2ccc3scc(-c4ccc(F)c(C(F)(F)F)c4)c3c2=O)C1` [Example 60, 3-(4-fluoro-3-(trifluoromethyl)phen-yl)-5-(2-(3-methylazetidin-1-yl)-2-oxoethyl)thieno[3,2-c]pyridin-4(5H)-one] is 76%; for `O=C(Cn1ccn2ncc(-c3ccc(F)c(C(F)(F)F)c3)c2c1=O)N1CCC(F)C1` (centres unmarked) [Example 321, 3-(4-fluoro-3-(trifluoromethyl)phenyl)-5-(2-(3-fluoropyrrolidin-1-yl)-2-oxoethyl)pyrazolo[1,5-a]pyrazin-4(5H)-one] it is 46%; for `CN(C)CCn1cc(-c2ccc(F)c(C(F)(F)F)c2)c2c(=O)n(CC(=O)N3CCC(F)C3)ccc21` (centres unmarked) [Example 240] it is 29%.
As for `Cc1cn(CC(=O)N2CCC(F)C2)c(=O)c2c(-c3ccc(Cl)c(Cl)c3)ccn12` (centres unmarked) [Example 413, 8-(3,4-dichlorophenyl)-2-(2-(3-fluoropyrrolidin-1-yl)-2-oxoethyl)-4-methylpyrrolo[1,2-a]pyrazin-1(2H)-one], the “Response Recovered (%)” value was found to be 43%.
The figure for `O=C(Cn1cnc2snc(-c3ccc(Cl)cc3)c2c1=O)N1CCCC1C(F)(F)F` (centres unmarked) [Example 382, 3-(4-chlorophenyl)-5-(2-oxo-2-(2-(trifluoromethyl)pyrrolidin-1-yl)ethyl)isothiazolo[5,4-d]pyrimidin-4(5H)-one] is 9%.
The figure for `CCC1(F)CN(C(=O)Cn2ccn3c(C)nc(-c4ccc(F)c(Cl)c4)c3c2=O)C1` [Example 431, 1-(3-chloro-4-fluorophenyl)-7-(2-(3-ethyl-3-fluoroazetidin-1-yl)-2-oxoethyl)-3-methylimidazo[1,5-a]pyrazin-8(7H)-one] is −3.9%; for `Cc1nc(-c2ccc(F)c(Cl)c2)c2c(=O)n(CC(=O)N3CC(C)(F)C3)ccn12` [Example 426, 1-(3-chloro-4-fluorophenyl)-7-(2-(3-fluoro-3-methylazetidin-1-yl)-2-oxoethyl)-3-methylimidazo[1,5-a]pyrazin-8(7H)-one] it is 30%.
The figure for `O=C(Cn1cnc2ccn(-c3ccc(Cl)cc3)c2c1=O)N1CCC1` [Example 370, 3-(2-(azetidin-1-yl)-2-oxoethyl)-5-(4-chlorophenyl)-3H-pyrrolo[3,2-d]pyrimidin-4(5H)-one] is 4%; for `O=C(Cn1ccc2c(c(-c3ccc(F)c(C(F)(F)F)c3)cn2CC(F)F)c1=O)N1CCC(F)C1` (centres unmarked) [Example 279, 1-(2,2-difluoroethyl)-3-(4-fluoro-3-(trifluoromethyl)phenyl)-5-(2-(3-fluoropyrrolidin-1-yl)-2-oxoethyl)-1H-pyrrolo[3,2-c]pyridin-4(5H)-one] it is 71%; for `O=C(Cn1cc(CO)c2scc(-c3ccc(F)c(Cl)c3)c2c1=O)N1CCC(F)C1` (centres unmarked) [Example 129, 3-(3-chloro-4-fluorophenyl)-5-(2-(3-fluoropyrrolidin-1-yl)-2-oxoethyl)-7-(hydroxymethyl) thieno[3,2-c]pyridin-4(5H)-one] it is 39%.
For the compound `O=C(Cn1ccc2c(c(-c3ccc(Cl)c(Cl)c3)cn2C2CC2)c1=O)N1CCC(F)C1` (centres unmarked) [Example 233, 1-cyclopropyl-3-(3,4-dichlorophenyl)-5-(2-(3-fluoropyrrolidin-1-yl)-2-oxoethyl)-1H-pyrrolo[3,2-c]pyridin-4(5H)-one], the “Response Recovered (%)” value is listed as 85%.
The value for `O=C(Cn1cnc2[nH]cc(-c3ccc(C(F)(F)F)c(Cl)c3)c2c1=O)N1CCC(F)C1` (centres unmarked) [Example 176, 5-(3-chloro-4-(trifluoromethyl)phenyl)-3-(2-(3-fluoropyrrolidin-1-yl)-2-oxoethyl)-3H-pyrrolo[2,3-d]pyrimidin-4(7H)-one] was 63%; that for `O=C(Cn1ccc2scc(-c3ccc(F)c(Cl)c3)c2c1=O)N1CCCC1` [Example 3, 3-(3-chloro-4-fluorophenyl)-5-(2-oxo-2-(pyrrolidin-1-yl)ethyl)thieno[3,2-c]pyridin-4(5H)-one] was 60%; that for `O=C(Cn1ccc2ccc(-c3ccc(Cl)c(C(F)(F)F)c3)cc2c1=O)N1CCC(F)C1` (centres unmarked) [Example 311, 7-(4-chloro-3-(trifluoromethyl)phenyl)-2-(2-(3-fluoropyrrolidin-1-yl)-2-oxoethyl)isoquinolin-1(2H)-one] was 6%.
The value for `COCn1cc(-c2ccc(F)c(Cl)c2)c2c(=O)n(CC(=O)N3CC(C)(F)C3)ccc21` [Example 254, 3-(3-chloro-4-fluorophenyl)-5-(2-(3-fluoro-3-methylazetidin-1-yl)-2-oxoethyl)-1-(methoxymethyl)-1,5-dihydro-4H-pyrrolo[3,2-c]pyridin-4-one] was 140%; that for `CC1CN(C(=O)Cn2ccc3scc(-c4ccc(F)c(Cl)c4)c3c2=O)C1` [Example 48, 3-(3-chloro-4-fluorophenyl)-5-(2-(3-methylazetidin-1-yl)-2-oxoethyl)thieno[3,2-c]pyridin-4(5H)-one] was 67%.
The figure for `O=C(Cn1cnc2csc(-c3ccc(Cl)cc3)c2c1=O)N1CCOCC1` [Example 354, 5-(4-chlorophenyl)-3-(2-morpholino-2-oxoethyl)thieno[3,4-d]pyrimidin-4(3H)-one] is 1%; for `CC1(F)CN(C(=O)Cn2ccc3c(c(-c4ccc(F)c(Cl)c4)cn3C3COC3)c2=O)C1` [Example 282, 3-(3-chloro-4-fluorophenyl)-5-(2-(3-fluoro-3-methylazetidin-1-yl)-2-oxoethyl)-1-(oxetan-3-yl)-1,5-dihydro-4H-pyrrolo[3,2-c]pyridin-4-one] it is 120%.
For the compound `CC1(F)CN(C(=O)Cn2ccc3scc(-c4cnc(F)c(F)c4)c3c2=O)C1` [Example 139, 3-(5,6-difluoropyridin-3-yl)-5-(2-(3-fluoro-3-methylazetidin-1-yl)-2-oxoethyl)thieno[3,2-c]pyridin-4(5H)-one], the “Response Recovered (%)” value is listed as 11%.
For the compound `CC1(F)CN(C(=O)Cn2ccc3scc(-c4ccc(Cl)c(F)c4)c3c2=O)C1` [Example 18, 3-(4-chloro-3-fluorophenyl)-5-(2-(3-fluoro-3-methylazetidin-1-yl)-2-oxoethyl)thieno[3,2-c]pyridin-4(5H)-one], the “Response Recovered (%)” value turned out to be 120%.
The figure for `O=C(Cn1cnc2csc(-c3ccc(Cl)cc3)c2c1=O)N1CC(F)(F)C1` [Example 348, 5-(4-chlorophenyl)-3-(2-(3,3-difluoroazetidin-1-yl)-2-oxoethyl)thieno[3,4-d]pyrimidin-4(3H)-one] is 26%; for `O=C(Cn1cnc2[nH]cc(-c3cnc(Cl)c(Cl)c3)c2c1=O)N1CCC(F)C1` (centres unmarked) [Example 180, 5-(5,6-dichloropyridin-3-yl)-3-(2-(3-fluoropyrrolidin-1-yl)-2-oxoethyl)-3H-pyrrolo[2,3-d]pyrimidin-4(7H)-one] it is 15%; for `O=C(Cn1cnc2cccc(-c3ccc(Cl)cc3)c2c1=O)N1CC(F)(F)C1` [Example 296, 5-(4-chlorophenyl)-3-(2-(3,3-difluoroazetidin-1-yl)-2-oxoethyl)quinazolin-4(3H)-one] it is 9%.
The value for `Cn1cc(-c2ccc(F)c(Cl)c2)c2c(=O)n(CC(=O)N3CCCC3)cnc21` [Example 159, 5-(3-chloro-4-fluorophenyl)-7-methyl-3-(2-oxo-2-(pyrrolidin-1-yl)ethyl)-3H-pyrrolo[2,3-d]pyrimidin-4(7H)-one] was 25%.
